# Like-named read-outs stand apart in the source and are kept apart here.
# What was measured:
# OVCAR-8 = assay: panel of 60 human tumor cell lines, growth inhibition (Ovarian Cancer); conditions: OVCAR-8
# MDA-MB-468 = assay: panel of 60 human tumor cell lines, growth inhibition (Breast Cancer); conditions: MDA-MB-468
# UACC-62 = assay: panel of 60 human tumor cell lines, growth inhibition (Melanoma); conditions: UACC-62
# HT29 = assay: panel of 60 human tumor cell lines, growth inhibition (Colon Cancer); conditions: HT29
# KM12 = assay: as above; conditions: KM12
# CCRF-CEM = assay: panel of 60 human tumor cell lines, growth inhibition (Leukemia)
# UACC-257 = assay: panel of 60 human tumor cell lines, growth inhibition (Melanoma); conditions: UACC-257
# SK-MEL-28 = assay: as above; conditions: SK-MEL-28
# SN12C = assay: panel of 60 human tumor cell lines, growth inhibition (Renal Cancer)
# A549/ATCC = assay: panel of 60 human tumor cell lines, growth inhibition (Non-Small Cell Lung Cancer); conditions: A549/ATCC
# TK-10 = assay: panel of 60 human tumor cell lines, growth inhibition (Renal Cancer); conditions: TK-10
# MDA-MB-231/ATCC = assay: panel of 60 human tumor cell lines, growth inhibition (Breast Cancer); conditions: MDA-MB-231/ATCC
# SK-MEL-2 = assay: panel of 60 human tumor cell lines, growth inhibition (Melanoma); conditions: SK-MEL-2
# OVCAR-3 = assay: panel of 60 human tumor cell lines, growth inhibition (Ovarian Cancer); conditions: OVCAR-3
# SR = assay: panel of 60 human tumor cell lines, growth inhibition (Leukemia)
# SNB-75 = assay: panel of 60 human tumor cell lines, growth inhibition (CNS Cancer); conditions: SNB-75
# HCT-116 = assay: panel of 60 human tumor cell lines, growth inhibition (Colon Cancer); conditions: HCT-116
smiles,measurement,setting,value
C=C1C(=O)O[C@H]2[C@H]1CC/C(COC(=O)NCCN1CCCCC1)=C\CC[C@@]1(C)O[C@@H]21 [JVM 2-13],GI50,OVCAR-8,5.07 µM
same,TGI,OVCAR-8,20 µM
same,Percent Growth,OVCAR-8; Log10 Concentration −4.0,−75%
same,Percent Growth,OVCAR-8; Log10 Concentration −5.0,32%
same,Percent Growth,OVCAR-8; Log10 Concentration −6.0,93%
same,Percent Growth,OVCAR-8; Log10 Concentration −7.0,97%
same,Percent Growth,OVCAR-8; Log10 Concentration −8.0,100%
same,GI50,MDA-MB-468,1.41 µM
same,TGI,MDA-MB-468,4.47 µM
same,Percent Growth,MDA-MB-468; Log10 Concentration −4.0,−68%
same,Percent Growth,MDA-MB-468; Log10 Concentration −5.0,−35%
same,Percent Growth,MDA-MB-468; Log10 Concentration −6.0,65%
same,Percent Growth,MDA-MB-468; Log10 Concentration −7.0,95%
same,Percent Growth,MDA-MB-468; Log10 Concentration −8.0,99%
same,GI50,UACC-62,4.86 µM
same,TGI,UACC-62,18.9 µM
same,Percent Growth,UACC-62; Log10 Concentration −4.0,−85%
same,Percent Growth,UACC-62; Log10 Concentration −5.0,33%
same,Percent Growth,UACC-62; Log10 Concentration −6.0,88%
same,Percent Growth,UACC-62; Log10 Concentration −7.0,95%
same,Percent Growth,UACC-62; Log10 Concentration −8.0,95%
same,GI50,HT29,3.76 µM
same,TGI,HT29,13 µM
same,Percent Growth,HT29; Log10 Concentration −4.0,−75%
same,Percent Growth,HT29; Log10 Concentration −5.0,10%
same,Percent Growth,HT29; Log10 Concentration −6.0,104%
same,Percent Growth,HT29; Log10 Concentration −7.0,100%
same,Percent Growth,HT29; Log10 Concentration −8.0,100%
same,GI50,KM12,14.4 µM
same,TGI,KM12,29.8 µM
same,Percent Growth,KM12; Log10 Concentration −4.0,−83%
same,Percent Growth,KM12; Log10 Concentration −5.0,75%
same,Percent Growth,KM12; Log10 Concentration −6.0,101%
same,Percent Growth,KM12; Log10 Concentration −7.0,106%
same,Percent Growth,KM12; Log10 Concentration −8.0,106%
same,GI50,CCRF-CEM,3.03 µM
same,TGI,CCRF-CEM,12.1 µM
same,Percent Growth,CCRF-CEM; Log10 Concentration −4.0,−41%
same,Percent Growth,CCRF-CEM; Log10 Concentration −5.0,4%
same,Percent Growth,CCRF-CEM; Log10 Concentration −6.0,93%
same,Percent Growth,CCRF-CEM; Log10 Concentration −7.0,109%
same,Percent Growth,CCRF-CEM; Log10 Concentration −8.0,104%
same,GI50,UACC-257,4.99 µM
same,TGI,UACC-257,19.2 µM
same,Percent Growth,UACC-257; Log10 Concentration −4.0,−86%
same,Percent Growth,UACC-257; Log10 Concentration −5.0,34%
same,Percent Growth,UACC-257; Log10 Concentration −6.0,86%
same,Percent Growth,UACC-257; Log10 Concentration −7.0,92%
same,Percent Growth,UACC-257; Log10 Concentration −8.0,94%
same,GI50,SK-MEL-28,3.35 µM
same,TGI,SK-MEL-28,14 µM
same,Percent Growth,SK-MEL-28; Log10 Concentration −4.0,−81%
same,Percent Growth,SK-MEL-28; Log10 Concentration −5.0,14%
same,Percent Growth,SK-MEL-28; Log10 Concentration −6.0,90%
same,Percent Growth,SK-MEL-28; Log10 Concentration −7.0,100%
same,Percent Growth,SK-MEL-28; Log10 Concentration −8.0,98%
same,GI50,SN12C,3.75 µM
same,TGI,SN12C,16.2 µM
same,Percent Growth,SN12C; Log10 Concentration −4.0,−71%
same,Percent Growth,SN12C; Log10 Concentration −5.0,19%
same,Percent Growth,SN12C; Log10 Concentration −6.0,92%
same,Percent Growth,SN12C; Log10 Concentration −7.0,94%
same,Percent Growth,SN12C; Log10 Concentration −8.0,97%
same,GI50,A549/ATCC,18.1 µM
same,TGI,A549/ATCC,42.2 µM
same,Percent Growth,A549/ATCC; Log10 Concentration −4.0,−51%
same,Percent Growth,A549/ATCC; Log10 Concentration −5.0,85%
same,Percent Growth,A549/ATCC; Log10 Concentration −6.0,94%
same,Percent Growth,A549/ATCC; Log10 Concentration −7.0,98%
same,Percent Growth,A549/ATCC; Log10 Concentration −8.0,95%
same,GI50,TK-10,2.88 µM
same,TGI,TK-10,11.1 µM
same,Percent Growth,TK-10; Log10 Concentration −4.0,−94%
same,Percent Growth,TK-10; Log10 Concentration −5.0,5%
same,Percent Growth,TK-10; Log10 Concentration −6.0,89%
same,Percent Growth,TK-10; Log10 Concentration −7.0,103%
same,Percent Growth,TK-10; Log10 Concentration −8.0,105%
same,GI50,MDA-MB-231/ATCC,5.69 µM
same,TGI,MDA-MB-231/ATCC,20.8 µM
same,Percent Growth,MDA-MB-231/ATCC; Log10 Concentration −4.0,−79%
same,Percent Growth,MDA-MB-231/ATCC; Log10 Concentration −5.0,37%
same,Percent Growth,MDA-MB-231/ATCC; Log10 Concentration −6.0,91%
same,Percent Growth,MDA-MB-231/ATCC; Log10 Concentration −7.0,99%
same,Percent Growth,MDA-MB-231/ATCC; Log10 Concentration −8.0,107%
same,GI50,SK-MEL-2,17 µM
same,TGI,SK-MEL-2,34.4 µM
same,Percent Growth,SK-MEL-2; Log10 Concentration −4.0,−76%
same,Percent Growth,SK-MEL-2; Log10 Concentration −5.0,88%
same,Percent Growth,SK-MEL-2; Log10 Concentration −6.0,113%
same,Percent Growth,SK-MEL-2; Log10 Concentration −7.0,113%
same,Percent Growth,SK-MEL-2; Log10 Concentration −8.0,103%
same,GI50,OVCAR-3,2.42 µM
same,TGI,OVCAR-3,8.46 µM
same,Percent Growth,OVCAR-3; Log10 Concentration −4.0,−97%
same,Percent Growth,OVCAR-3; Log10 Concentration −5.0,−7%
same,Percent Growth,OVCAR-3; Log10 Concentration −6.0,85%
same,Percent Growth,OVCAR-3; Log10 Concentration −7.0,105%
same,Percent Growth,OVCAR-3; Log10 Concentration −8.0,108%
same,CC50,OVCAR-3; read-out: LC50,30.4 µM
same,GI50,HL-60(TB),3.5 µM
same,TGI,HL-60(TB),11.3 µM
same,Percent Growth,HL-60(TB); Log10 Concentration −4.0,−44%
same,Percent Growth,HL-60(TB); Log10 Concentration −5.0,2%
same,Percent Growth,HL-60(TB); Log10 Concentration −6.0,107%
same,Percent Growth,HL-60(TB); Log10 Concentration −7.0,106%
same,Percent Growth,HL-60(TB); Log10 Concentration −8.0,90%
same,CC50,HL-60(TB); read-out: LC50,> 100 µM
same,TGI,SR,15.4 µM
same,Percent Growth,SR; Log10 Concentration −4.0,−47%
same,Percent Growth,SR; Log10 Concentration −5.0,11%
same,Percent Growth,SR; Log10 Concentration −6.0,75%
same,Percent Growth,SR; Log10 Concentration −7.0,95%
same,Percent Growth,SR; Log10 Concentration −8.0,118%
same,GI50,SNB-75,10.4 µM
same,TGI,SNB-75,2.256−5 M
same,Percent Growth,SNB-75; Log10 Concentration −4.0,−96%
same,Percent Growth,SNB-75; Log10 Concentration −5.0,52%
same,Percent Growth,SNB-75; Log10 Concentration −6.0,73%
same,Percent Growth,SNB-75; Log10 Concentration −7.0,75%
same,Percent Growth,SNB-75; Log10 Concentration −8.0,75%
same,GI50,HCT-116,2.72 µM
same,TGI,HCT-116,11.4 µM
same,Percent Growth,HCT-116; Log10 Concentration −4.0,−92%
same,Percent Growth,HCT-116; Log10 Concentration −5.0,5%
same,Percent Growth,HCT-116; Log10 Concentration −6.0,84%
same,Percent Growth,HCT-116; Log10 Concentration −7.0,96%
same,Percent Growth,HCT-116; Log10 Concentration −8.0,95%
same,CC50,HCT-116; read-out: LC50,37 µM

# From patent US9469650B2, “Melampomagnolide B derivatives” (BOARD OF TRUSTEES OF THE UNIVERSITY OF ARKANSAS, priority 2013, dated 2016)
